{"source": "patent US20200384072A1", "about": "“THERAPY OF IONIZING RADIATION-INDUCED DISORDERS” (SCK-CEN, priority 2019, published 2020)", "assay_type_in_all_cases": "cell-based, human", "key": {"TIME cells [1]": {"test_system": "TIME cells", "assay": "Dextran fluorescein (10 kDa) dye uptake cell death assay, TIME cells", "protocol": "Dextran fluorescein, staining late apoptotic and necrotic cells, was used to validate apoptosis in TIME cells after irradiation. Cells were seeded in a 24-well plate at a density of 1.5×10^5 cells/well in 6 biological replicates. Three days later, cells reached 100% confluence. Before X-ray exposure with 30 minutes, cells were refreshed with medium with or without 100 μM TAT-Gap19 (Genosphere Biotechnologies, Paris, France). At 6 h and 72 h after irradiation, cells were washed twice with HMS supplemented with 25 mM HEPES (Sigma-Aldrich Co. LCC, Diegem, Belgium) (HBSS-HEPES). Afterwards, the cells were incubated with 200 μM dextran fluorescein (10 kDa) (Life Technologies, Merelbeke, Belgium), dissolved in HBSS-HEPES. After six minutes, the staining was removed by washing six times with HBSS-HEPES. Finally, the fluorescence was measured using the IncuCyte ZOOM® system (Essen BioScience, Ann Arbor, Mich., USA) by using FITC channel and phase contrast to count the cells using a ×10 objective. The fluorescence signal was normalized to cell count."}, "TICAE cells [2]": {"test_system": "TICAE cells", "assay": "Cytokine detection (Magnetic Luminex) in supernatant after irradiation, TICAE cells", "protocol": "(§1) TICAE and TIME cells were seeded in a 6-well plate at a density of 2.5×10^5 cells/well in 5 to 6 biological replicates. Two to three days later, cells reached 100% confluence. At 30 minutes before X-ray exposure, cells were refreshed with medium with or without 100 μM TAT-Gap19 (Genosphere Biotechnologies, Paris, France). At 24 h, 48 h, 72 h and 7 d after irradiation, the supernatant was collected. Medium was changed only for the 7 d time point experiment at the fourth day with fresh medium alone or with medium supplemented with 100 μM TAT-Gap19. For the simultaneous detection of multiple cytokines in the supernatants, the Magnetic Luminex® Assay (R&D systems, Minneapolis, […]) was used following manufacturer's instructions. Briefly, supernatants, standards and microparticles were incubated into a 96-well plate which was pre-coated with cytokine-specific antibodies. The immobilized antibodies were able to bind the cytokines of interest after 2 h incubation, then the plate was washed and incubation with a biotinylated antibody cocktail specific to the cytokines of interest was performed for 1 h. A second wash was performed to remove the unbound biotinylated antibodies. Further, a streptavidin-phycoerythrin conjugate was added to each well to bind to the biotinylated antibodies. After a final wash, the microparticles were resuspended in buffer and read using the Luminex® MAGPIX Analyzer (R&D systems, Minneapolis, […]).\n(§2) In order to normalize to cell number, DAPI staining was performed for the 48 h after irradiation time point. Briefly, cells were washed with phosphate buffered saline (PBS) and fixed with 4% paraformaldehyde (PFA) for 15 minutes at room temperature. Afterwards, the cells were washed with PBS and stained with 1 μg/mL 4′,6-Diamidine-2′-phenylindole (DAPI) dissolved in 1×TBST, 0.005 g/v % TSA blocking powder (PerkinElmer, FP1012) (TNB). After one hour, cells were washed with PBS and DAPI signals were visualized with the Nikon Eclipse Ti automated inverted wide-field epifluorescence microscope equipped with a 5× magnification (Plan Fluor, numerical aperture 0.6) dry objective and a Nikon IE2000-E camera controlled by the MS Elements software. The intensity of the DAPI signals was determined with the FIJI software. Cell count for 24 h after irradiation experiment was performed by Moxi Z Mini Automated Cell Counter (ORFLO Technologies, Ketchum, Id., USA) after trypsinization. For the 72 h and 7 d post-irradiation cell counts, we used IncuCyte ZOOM™ phase contrast imaging based on 49 images taken per well with the 10× objective."}, "TIME cells [3]": {"test_system": "TIME cells", "assay": "Cytokine detection (Magnetic Luminex) in supernatant after irradiation, TIME cells", "protocol": "as §1, §2"}, "TICAE cells [4]": {"test_system": "TICAE cells", "assay": "DNA damage, gamma H2AX and TP53BP1 foci, TICAE cells", "conditions": "100 μM TAT-Gap19, 0.1 and 5 Gy, 1 h p.i.", "protocol": "To detect DNA double strand breaks after IR, TICAE and TIME cells were seeded in Nunc™ Lab-Tek™ Chamber Slide (Thermo Fisher Scientific, Asse, Belgium) in 8 replicates, at seeding density of 50 000 cells/well. Two days later, cells reached 100% confluence. At 30 min before IR, a fresh medium was added to the cells with or without 100 μM TAT-Gap19. At 1 h post irradiation, cells were fixed with 2% PFA (Sigma-Aldrich Co. LCC, Diegem, Belgium) and permeabilized with 0.25% Triton X-100 (Sigma-Aldrich Co. LCC, Diegem, Belgium) in PBS. Cells were blocked for 1 h in 1% normal goat serum (Thermo Fisher Scientific, Asse, Belgium) in Tris-NaCl (Perkin Elmer, Brussels, Belgium). Thereafter, staining with 1/300 primary anti-gamma H2AX antibody (Merck-Millipore #05-636) and 1/1000 anti-TP53BP1 antibody (Novus Biologicals #NB100-304) was performed for 1 h at 37° C. After washing 3 times with PBS, secondary Alexa Fluor 488 and 568 antibodies (Life Technologies, Merelbeke, Belgium) were applied for 1 h at 37° C. Finally, the slides were mounted using ProLong Diamond Antifade Mountant with DAPI (Life Technologies, Merelbeke, Belgium), and cells were visualized with an Eclipse Ti automated inverted wide-field epifluorescence microscope (Nikon, Brussels, Belgium) equipped with a 20×Plan Fluor objective (NA 0.6) and an Andor Ixon EMCCD camera, controlled by the MS Elements software. […]"}, "[5]": {"conditions": "100 μM TAT-Gap19, 5 Gy, 72 h and 7 d p.i."}, "[6]": {"conditions": "100 μM TAT-Gap19, control and 0.1 Gy"}}, "data": [{"substance": "TAT-Gap19: connexin mimetic peptide, amino-acids 128-136 of the CL of Cx43 (SEQ ID NO: 2), Gap19 linked to TAT sequence; Cx43 hemichannel inhibitor (YGRKKRRQRRRKQIEIKKFK)", "values": [{"measurement": "dextran fluorescein staining (radiation-induced increase)", "setting": "TIME cells [1]; 100 μM TAT-Gap19, 5 Gy at 6 h p.i., 5 and 0.1 Gy at 72 h p.i., including control response", "result": "inhibited"}, {"measurement": "dextran fluorescein staining", "setting": "TIME cells [1]; 100 μM TAT-Gap19, control and 0.1 Gy, 6 h p.i.", "result": "small increase"}, {"measurement": "MCP-1 readout", "setting": "TICAE cells [2]; 100 μM TAT-Gap19, 0 Gy control and 0.1 Gy, 72 h p.i.", "result": "increased"}, {"measurement": "IL-8 (radiation-induced increase)", "setting": "TICAE cells [2]; [5]", "result": "significantly decreased these responses"}, {"measurement": "MCP-1 (radiation-induced increase)", "setting": "TICAE cells [2]; [5]", "result": "significantly decreased these responses"}, {"measurement": "VCAM-1 (radiation-induced increase)", "setting": "TICAE cells [2]; [5]", "result": "significantly decreased these responses"}, {"measurement": "all tested inflammatory markers", "setting": "TICAE cells [2]; 100 μM TAT-Gap19, 24 h time point", "result": "increased all tested markers"}, {"measurement": "Endothelin-1 (radiation-induced increase)", "setting": "TICAE cells [2]; 100 μM TAT-Gap19, 7 d p.i.", "result": "significantly reduced these responses"}, {"measurement": "IL-11 (radiation-induced increase)", "setting": "TICAE cells [2]; 100 μM TAT-Gap19, 7 d p.i.", "result": "significantly reduced these responses"}, {"measurement": "Endothelin-1 readout", "setting": "TICAE cells [2]; [6]", "result": "decreased"}, {"measurement": "E-selectin readout", "setting": "TIME cells [3]; 100 μM TAT-Gap19, 0.1 Gy", "result": "decreased"}, {"measurement": "IL-6 readout", "setting": "TIME cells [3]; 100 μM TAT-Gap19, 0.1 Gy", "result": "decreased"}, {"measurement": "IL-8 readout", "setting": "TIME cells [3]; 100 μM TAT-Gap19, 0.1 Gy", "result": "decreased"}, {"measurement": "PECAM-1 readout", "setting": "TIME cells [3]; 100 μM TAT-Gap19, 0.1 Gy", "result": "decreased"}, {"measurement": "TNF-α readout", "setting": "TIME cells [3]; 100 μM TAT-Gap19, 0.1 Gy", "result": "decreased"}, {"measurement": "VCAM-1 readout", "setting": "TIME cells [3]; 100 μM TAT-Gap19, 0.1 Gy", "result": "decreased"}, {"measurement": "CRP (radiation-induced increase)", "setting": "TIME cells [3]; 100 μM TAT-Gap19, 5 Gy, 24 h", "result": "significantly reduced the increase"}, {"measurement": "E-Selectin (radiation-induced increase)", "setting": "TIME cells [3]; 100 μM TAT-Gap19, 5 Gy, 24 h", "result": "significantly reduced the increase"}, {"measurement": "ICAM-1 (radiation-induced increase)", "setting": "TIME cells [3]; 100 μM TAT-Gap19, 5 Gy, 24 h", "result": "significantly reduced the increase"}, {"measurement": "IL-1B (radiation-induced increase)", "setting": "TIME cells [3]; 100 μM TAT-Gap19, 5 Gy, 24 h", "result": "significantly reduced the increase"}, {"measurement": "MCP-1 (radiation-induced increase)", "setting": "TIME cells [3]; 100 μM TAT-Gap19, 5 Gy, 24 h", "result": "significantly reduced the increase"}, {"measurement": "PECAM-1 (radiation-induced increase)", "setting": "TIME cells [3]; 100 μM TAT-Gap19, 5 Gy, 24 h", "result": "significantly reduced the increase"}, {"measurement": "TNF-α (radiation-induced increase)", "setting": "TIME cells [3]; 100 μM TAT-Gap19, 5 Gy, 24 h", "result": "significantly reduced the increase"}, {"measurement": "IL-6 (radiation-induced increase)", "setting": "TIME cells [3]; 100 μM TAT-Gap19, 5 Gy, 24 h, 48 h and 7 d p.i.", "result": "significantly reduced these responses"}, {"measurement": "Endothelin-1 (radiation-induced increase)", "setting": "TIME cells [3]; 100 μM TAT-Gap19, 5 Gy, 24 h, 72 h and 7 d p.i.", "result": "significantly decreased these responses"}, {"measurement": "VCAM-1 (radiation-induced increase)", "setting": "TIME cells [3]; 100 μM TAT-Gap19, 5 Gy, 24 h and 7 d p.i.", "result": "significantly reduced these responses"}, {"measurement": "IL-8 levels", "setting": "TIME cells [3]; 100 μM TAT-Gap19, 5 Gy, 7 d p.i.", "result": "significantly decreased IL-8 levels"}, {"measurement": "Endothelin-1 readout", "setting": "TIME cells [3]; [6]", "result": "decreased"}, {"measurement": "IL-6 readout", "setting": "TIME cells [3]; 100 μM TAT-Gap19, control and 0.1 Gy, 7 d p.i.", "result": "increased"}, {"measurement": "gamma H2AX, TP53BP1 and colocalized foci (radiation-induced DNA damage)", "setting": "TICAE cells [4]", "result": "not affected"}]}]}
